The values that follow come from patent US8377914B2, “Method of inducing negative chemotaxis” (Celtaxsys, Inc., priority 2008, dated 2013).

The assay deals with neutrophils. Description: Chemorepulsion assay of neutrophils in Neuroprobe ChemoTx plates, migrated cells quantified with Cell Titer Glo. Type of assay: cell-based, human. To be noted: for Activity (chemorepulsive activity): screened at 3.7, 11.1, 33.3 and 100 uM. Here is the method:
The chemorepulsive activity of idebenone, benazepril, rolipram, moxonidine, lamivudine, calcitriol, calcipotriol, loxoprofen, terbinafine, Synephrine and 6-aminoindazole was determined as follows: • 1. Prior to beginning the assay, the following were prepared: • a. 0.5% Fetal Calf Serum (FCS) in Iscove's Modified Dulbecco's Medium (IMDM) (Assay Medium) (Both from ATCC). • b. Migratory cells at a concentration of 2×10^7 cells/ml in Assay Medium. • c. The indicated dilutions of the ligand of interest in Assay Medium were prepared. • 2. The assay plates are Neuroprobe ChemoTx plates, part number 206-3 (3 um pore size) for neutrophils. • 3. The plates were removed from packaging, leaving the membrane behind. • 4. 31 μl of the following solutions were pipetted into each well: • a. For media controls and for chemorepulsion samples, Assay Medium was used. • b. For chemoattraction samples, appropriate dilution of ligand was used. • 5. A sterile needle was used to pop any and all small bubbles present in each well. • 6. The membrane was carefully placed onto the plate, starting at one side and then slowly lowering the other edge onto the plate. • 7. 29 μl of the following were pipetted onto the top of each circle: • a. For media controls and chemoattraction (CA) samples, use Assay Medium. • b. For chemorepulsion (CR) samples, use the appropriate dilution of ligand. • 8. 2 μl of cells (40,000 cells) were added to each bubble of liquid from step 7. • 9. A needle was used to pop all air bubbles. • 10. The plate was covered with the supplied lid and incubated for the desired time at 37° C. in 5% CO2. Unless otherwise indicated, the incubation time was 1 hour for neutrophils and 3 hours for T cells. For monocytes and B cells, the incubation time was 2 hours. • 11. After the desired assay time, the liquid was removed from the top of the plate using a Kimwipe. At this point, the plate was stored (with the membrane in place) for up to 2 hours at 4° C. • 12. The membrane was carefully removed from the top of the plate and discard. The plate was examined under a microscope to look for ligand crystallization, contamination and overall migration. • 13. White read plates were preloaded with 25 ul PBS. • 14. Using a multichannel pipettor, 5 ul of Cell Titer Glo (Promega # G7572) was added to each well. • 15. Using a multichannel pipettor set at 30 ul, lysed cell solution was transferred to white read plates pre-loaded with PBS. • 16. The plate was read using the BioTek Synergy4 plate reader in order to quantify the number of migrated cells.
The calcitriol analogs listed below were screened at concentrations of 3.7, 11.1, 33.3 and 100 uM as described above for chemorepulsive activity (FIGS. 11-13).
In general terms: ATP-based viability assays read luminescence as a measure of living cells.

Where [1] appears, read: Homo sapiens, Neutrophil, neutrophils, 0.1 uM, replicates, read-out: fold induction of chemorepulsion over media.
Where [2] appears, read: Homo sapiens, Neutrophil, read-out: fold induction of chemorepulsion over media.

Structures are written as SMILES. Where two headings read alike, the source gives them in different places.

Consider `C=C1/C(=C\C=C2/CCC[C@]3(C)[C@@H]([C@H](C)CCCC(C)C)CC[C@@H]23)C[C@@H](O)C[C@@H]1O` [1α-hydroxycholecalciferol], for which, where the note is “neutrophils”, the “Activity (chemorepulsive activity)” value was “No activity”. Turning to `C=C1/C(=C\C=C2/CCC[C@]3(C)[C@@H]([C@H](C)/C=C/[C@H](C)C(C)C)CC[C@@H]23)C[C@@H](O)C[C@@H]1O` [1α-hydroxyvitamin D2], the “Activity (chemorepulsive activity)” value (neutrophils) is “No activity”.

As to `Nc1ccc2c[nH]nc2c1` [6-aminoindazole], the fold induction at 0.1 µM under setting [1] is above 3. Turning to `C=C1CC[C@H](O)C/C1=C/C=C1\CCC[C@]2(C)[C@@H]([C@H](C)CCCC(C)(C)O)CC[C@@H]12` [Calcefidiol], where the note is “neutrophils”, the “Activity (chemorepulsive activity)” value was “No activity”. Regarding `C=C1/C(=C\C=C2/CCC[C@]3(C)[C@@H]([C@H](C)/C=C/[C@@H](O)C4CC4)CC[C@@H]23)C[C@@H](O)C[C@@H]1O` [Calcipotriene], the “Activity (chemorepulsive activity)” value (neutrophils) is on record as “Chemorepellant”. `C=C1CC[C@H](O)C/C1=C/C=C1\CCC[C@]2(C)[C@@H]([C@H](C)/C=C/[C@H](C)C(C)C)CC[C@@H]12` [Vitamin D2, ergocalciferol]: the “Activity (chemorepulsive activity)” value (neutrophils) was “Chemorepellant”.

For `C=C1CC[C@H](O)C/C1=C/C=C1\CCC[C@]2(C)[C@@H]([C@H](C)CCCC(C)C)CC[C@@H]12` [Vitamin D3, cholecalciferol], where the note is “neutrophils”, the “Activity (chemorepulsive activity)” value was “Chemorepellant”.

Consider `CCOC(=O)[C@H](CCc1ccccc1)N[C@H]1CCc2ccccc2N(CC(=O)O)C1=O` [benazepril], for which the fold induction at 0.92 µM under setting [2] was around 2.

`C=C1/C(=C\C=C2/CCCC3(C)C2CCC3[C@@H](C)CCCC(C)(C)O)C[C@@H](O)CC1O` (stereo partly drawn) [calcitriol, 1,25-dihydroxyvitamin D]: the fold induction at 100 µM (Homo sapiens, Neutrophil, neutrophils, 100 uM, read-out: fold induction of chemorepulsion over media) was above 3. Consider `CC(C(=O)O)c1ccc(CC2CCCC2=O)cc1` (stereo not drawn) [loxoprofen], for which the fold induction at 0.091 µM under setting [2] was above 2. Turning to `COc1nc(C)nc(Cl)c1NC1=NCCN1` [moxonidine], the fold induction at 0.092 µM (Homo sapiens, Neutrophil, neutrophils, 0.092 uM, replicates, read-out: fold induction of chemorepulsion over media) is around 2. For the same compound, under “Homo sapiens, Neutrophil, neutrophils, 9.9 uM, replicates, read-out: fold induction of chemorepulsion over media”, the fold induction at 9.9 µM was above 2. On to `COc1ccc(C2CNC(=O)C2)cc1OC1CCCC1` (stereo not drawn) [rolipram, 4-(3-cyclopentyloxy-4-methoxy-phenyl)pyrrolidin-2-one], for which the fold induction at 0.1 µM under setting [1] stood at 2. On to `CNCC(O)c1ccc(O)cc1` (stereo not drawn) [synephrine], for which, under setting [2], the fold induction at 0.1 µM is above 2.

As for `CN(C/C=C/C#CC(C)(C)C)Cc1cccc2ccccc12` [terbinafine, N,6,6-trimethyl-N-(naphthalen-1-ylmethyl)hept-2-en-4-yn-1-amine], the fold induction at 89 µM (Homo sapiens, Neutrophil, neutrophils, 89 uM, read-out: fold induction of chemorepulsion over media) was above 2.5.
